We go through 20 compounds from US20250051319A1 (AUGUSTINE THERAPEUTICS, priority 2021, published 2025).

Where only a bound is given, the exact number is not on record here.

The target in assay [1] is human full-length recombinant HDAC6 (Homo sapiens (Human), UniProt Q9UBN7). As to the kind of experiment: HDAC6 enzymatic activity assay (Reaction Biology Corporation, RHKKAc fluorogenic peptide). Type of assay: biochemical. Conditions: Reaction Biology Corporation protocol, RHKKAc fluorogenic peptide 10 μM; read-out: HDAC6 biochem. The procedure: (§1) Dose response testing of HDAC6 and HDAC 1 were run at Reaction Biology Corporation (RBC). Inhibition of HDAC enzymes was performed using N-terminal GST tagged human full-length recombinant HDAC6 (H88-30G, SignalChem) and C-terminal FLAG His tag human full-length recombinant HDAC1 produced in insect cells (KDA-21-365, RBC). Enzyme reactions were run in 50 mM Tris-HCl, pH8.0, 137 mM NaCl, 2.7 mM KCl, and 1 mM MgCl2 with 1 mg/ml BSA, 1% DMSO freshly added. 2× enzyme was delivered in the wells of the reaction plate except for the “no enzyme” control wells. In the latter, buffer was added. Compounds in 100% DMSO were delved into the enzyme mixture by acoustic technology (Echo550). Plates are spun down and compounds were incubation with the enzyme for 10 min at room temperature. 2× Fluorogenic peptide from p53 residues 379-382 (RHKKAc, 10 μM final concentration) was added in all wells to initiate the reaction, followed by 1 h incubation at 30° C. Developer containing Trichostatin A was added to stop the reaction and generate fluorescent color. A kinetic measurement was carried out for 20 min with 5 min interval on the Envision plate reader (Perkin Elmer, Ex/Em=360/460). End point reading i.e., plateau of the development reaction was used for analysis. Data was reported by RBC as percentage enzyme activity. Percentage inhibition was calculated by subtracting percentage enzyme activity from 100. IC50 values were calculated using GraphPad Prism 9 based on the log(inhibitor) vs. response—Variable slope (four parameters) equation.

Assay [2] concerns the target human full-length recombinant HDAC1 (Homo sapiens (Human), UniProt Q13547). Briefly: HDAC1 enzymatic activity assay (Reaction Biology Corporation, RHKKAc fluorogenic peptide). In kind it is biochemical. Particulars: Reaction Biology Corporation protocol, RHKKAc fluorogenic peptide 10 μM; read-out: HDAC1 biochem. On the procedure: as §1
The target in assay [3] is catalytic domain 2 (CD2) of HDAC6 (Homo sapiens (Human), UniProt Q9UBN7). Briefly: Cellular target engagement assay - NanoBRET. Conditions: NanoLuc-HDAC6(CD2) in HEK293T cells, 2 hours, read-out: IC50 (HDAC6(CD2) interaction). Type of assay: cell-based.
Chain of catalytic domain 2 (CD2) of HDAC6 (Q9UBN7 482-800): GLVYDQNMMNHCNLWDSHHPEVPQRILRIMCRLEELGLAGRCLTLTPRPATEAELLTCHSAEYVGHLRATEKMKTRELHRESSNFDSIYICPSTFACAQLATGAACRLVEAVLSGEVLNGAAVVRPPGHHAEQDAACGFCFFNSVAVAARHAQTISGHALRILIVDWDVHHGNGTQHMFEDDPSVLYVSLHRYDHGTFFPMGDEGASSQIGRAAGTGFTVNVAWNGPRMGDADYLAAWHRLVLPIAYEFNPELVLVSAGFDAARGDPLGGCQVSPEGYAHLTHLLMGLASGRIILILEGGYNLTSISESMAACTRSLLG

Chain of human full-length recombinant HDAC6 (Q9UBN7 whole entry): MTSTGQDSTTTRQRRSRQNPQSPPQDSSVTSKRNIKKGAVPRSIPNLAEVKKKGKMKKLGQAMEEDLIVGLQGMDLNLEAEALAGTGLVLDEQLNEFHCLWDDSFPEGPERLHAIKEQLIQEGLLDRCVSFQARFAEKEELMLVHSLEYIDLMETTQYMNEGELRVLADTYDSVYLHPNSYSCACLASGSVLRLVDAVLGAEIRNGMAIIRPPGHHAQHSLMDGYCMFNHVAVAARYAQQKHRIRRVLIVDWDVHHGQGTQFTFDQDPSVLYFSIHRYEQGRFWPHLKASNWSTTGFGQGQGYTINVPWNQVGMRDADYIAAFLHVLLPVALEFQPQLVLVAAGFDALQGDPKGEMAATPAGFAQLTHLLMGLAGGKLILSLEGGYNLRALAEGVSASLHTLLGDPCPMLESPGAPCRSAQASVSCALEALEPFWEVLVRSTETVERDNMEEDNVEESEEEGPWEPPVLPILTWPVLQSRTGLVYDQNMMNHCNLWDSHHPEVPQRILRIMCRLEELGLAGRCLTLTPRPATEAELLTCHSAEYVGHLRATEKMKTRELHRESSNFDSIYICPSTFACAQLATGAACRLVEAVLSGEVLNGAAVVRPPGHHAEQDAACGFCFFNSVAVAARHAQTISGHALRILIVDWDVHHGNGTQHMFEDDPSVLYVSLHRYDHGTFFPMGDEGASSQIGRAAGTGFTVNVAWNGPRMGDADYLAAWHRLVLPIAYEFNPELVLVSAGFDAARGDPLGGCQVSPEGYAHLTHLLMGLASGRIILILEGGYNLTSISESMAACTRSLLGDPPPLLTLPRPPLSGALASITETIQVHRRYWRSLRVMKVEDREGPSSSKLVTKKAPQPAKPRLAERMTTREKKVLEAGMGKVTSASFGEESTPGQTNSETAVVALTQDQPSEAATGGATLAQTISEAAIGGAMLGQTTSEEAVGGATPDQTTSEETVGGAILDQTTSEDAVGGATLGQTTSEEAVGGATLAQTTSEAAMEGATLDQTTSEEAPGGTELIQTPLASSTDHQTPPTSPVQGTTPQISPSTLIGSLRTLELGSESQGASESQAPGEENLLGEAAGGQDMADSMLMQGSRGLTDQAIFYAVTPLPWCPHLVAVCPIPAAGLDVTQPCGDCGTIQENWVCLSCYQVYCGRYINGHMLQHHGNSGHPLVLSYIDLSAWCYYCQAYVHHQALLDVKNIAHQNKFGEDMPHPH
Chain of human full-length recombinant HDAC1 (Q13547 whole entry, the tested form may be a part): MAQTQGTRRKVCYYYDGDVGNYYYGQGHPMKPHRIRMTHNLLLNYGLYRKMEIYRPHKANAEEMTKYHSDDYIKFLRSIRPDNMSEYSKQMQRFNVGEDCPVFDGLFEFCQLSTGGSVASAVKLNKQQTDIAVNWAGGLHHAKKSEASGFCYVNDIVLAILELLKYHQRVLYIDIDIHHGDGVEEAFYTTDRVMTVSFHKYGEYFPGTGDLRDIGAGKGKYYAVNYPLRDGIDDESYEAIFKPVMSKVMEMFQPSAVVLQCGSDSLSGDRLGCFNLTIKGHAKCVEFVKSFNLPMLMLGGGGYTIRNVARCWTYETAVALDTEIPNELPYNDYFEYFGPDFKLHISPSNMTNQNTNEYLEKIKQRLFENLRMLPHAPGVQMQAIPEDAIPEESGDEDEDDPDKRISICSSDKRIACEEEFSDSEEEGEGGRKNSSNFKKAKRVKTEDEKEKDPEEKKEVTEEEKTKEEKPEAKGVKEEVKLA

Turning to `Cc1nc(SCC(=O)c2ccc(CNC(=O)CO)s2)c2cc(N3CCN(C)CC3)ccc2n1` [Compound 85, 2-hydroxy-N-((5-(2-((2-methyl-6-(4-methylpiperazin-1-yl)quinazolin-4-yl)thio)acetyl)thiophen-2-yl)methyl)acetamide], the results for the IC50 in assay [1], in assay [2] and in assay [3] were at most 100 nM, above 10000 nM and at most 100 nM, respectively.
For `O=C(CO)NCc1ccc(C(=O)CSc2nc(C(F)(F)F)nc3ncccc23)s1` [Compound 113, 2-hydroxy-N-((5-(2-((2-(trifluoromethyl)pyrido[2,3-d]pyrimidin-4-yl)thio)acetyl)thiophen-2-yl)methyl)acetamide], the IC50 in assay [1] was at most 100 nM; in assay [2], above 10000 nM; in assay [3], at most 100 nM.
As to `O=C(CSc1nc(C(F)(F)F)nc2ncccc12)c1ccc(CNC(=O)C2CC2(F)F)s1` (stereo not drawn) [Compound 114, 2,2-difluoro-N-((5-(2-((2-(trifluoromethyl)pyrido[2,3-d]pyrimidin-4-yl)thio)acetyl)thiophen-2-yl)methyl)cyclopropane-1-carboxamide], the results for the IC50 in assay [1], in assay [2] and in assay [3] were at most 100 nM, above 10000 nM and at most 100 nM, respectively.
Turning to `O=C(CO)NCc1ccc(C(=O)CSc2nc3ccc(C(F)(F)F)nc3o2)s1` [Compound 117, 2-hydroxy-N-((5-(2-((5-(trifluoromethyl)oxazolo[5,4-b]157yrrolid-2-yl)thio)acetyl)thiophen-2-yl)methyl)acetamide], the IC50 in assay [1] is at most 100 nM; in assay [2], above 10000 nM; in assay [3], at most 100 nM.
As for `O=C(CO)NCc1ccc(C(=O)CSc2nc3ncc(C(F)(F)F)cc3o2)s1` [Compound 118, 2-hydroxy-N-((5-(2-((6-(trifluoromethyl)oxazolo[4,5-b]157yrrolid-2-yl)thio)acetyl)thiophen-2-yl)methyl)acetamide], the IC50 was at most 100 nM in assay [1], 500 to 1000 nM in assay [2] and at most 100 nM in assay [3].
Regarding `Cc1nc(SCC(=O)c2ccc(CNC(=O)CO)s2)c2cc(C(F)(F)F)cnc2n1` [Compound 119, 2-hydroxy-N-((5-(2-((2-methyl-6-(trifluoromethyl)pyrido[2,3-d]pyrimidin-4-yl)thio)acetyl)thiophen-2-yl)methyl)acetamide], the IC50 in assay [1] was at most 100 nM; in assay [2], above 10000 nM; in assay [3], at most 100 nM.
Turning to `Cc1nc(SCC(=O)c2ccc(CNC(=O)CO)s2)c2cc(F)cnc2n1` [Compound 124, N-((5-(2-((6-fluoro-2-methylpyrido[2,3-d]pyrimidin-4-yl)thio)acetyl)thiophen-2-yl)methyl)-2-hydroxyacetamide], the IC50 in assay [1] is at most 100 nM; in assay [2], above 10000 nM; in assay [3], at most 100 nM.
Take `COCCn1ncc2c(SCC(=O)c3ccc(CNC(=O)CO)s3)nc(C(F)(F)F)nc21` [Compound 125, 2-hydroxy-N-((5-(2-((1-(2-methoxyethyl)-6-(trifluoromethyl)-1H-pyrazolo[3,4-d]pyrimidin-4-yl)thio)acetyl)thiophen-2-yl)methyl)acetamide]: the IC50 in assay [1] is at most 100 nM; in assay [2] it was above 10000 nM; in assay [3], at most 100 nM.
Consider `Cc1nc(SCC(=O)c2ccc(CNC(=O)CO)s2)c2cc(OC(F)(F)F)ccc2n1` [Compound 126, 2-hydroxy-N-((5-(2-((2-methyl-6-(trifluoromethoxy)quinazolin-4-yl)thio)acetyl)thiophen-2-yl)methyl)acetamide], for which the results for the IC50 in assay [1], in assay [2] and in assay [3] were at most 100 nM, above 10000 nM and at most 100 nM, respectively.
For the compound `COCCn1cc2c(SCC(=O)c3ccc(CNC(=O)CO)s3)nc(C(F)(F)F)nc2n1` [Compound 132, 2-hydroxy-N-((5-(2-((2-(2-methoxyethyl)-6-(trifluoromethyl)-2H-pyrazolo[3,4-d]pyrimidin-4-yl)thio)acetyl)thiophen-2-yl)methyl)acetamide], the figures for the IC50 in assay [1], in assay [2] and in assay [3] were at most 100 nM, above 10000 nM and at most 100 nM, respectively.
As to `O=C(CO)NCc1ccc(C(=O)CSc2nc(C(F)(F)F)nc3c2cnn3C2CC2)s1` [Compound 133, N-((5-(2-((1-cyclopropyl-6-(trifluoromethyl)-1H-pyrazolo[3,4-d]pyrimidin-4-yl)thio)acetyl)thiophen-2-yl)methyl)-2-hydroxyacetamide], the results for the IC50 in assay [1], in assay [2] and in assay [3] were at most 100 nM, above 10000 nM and at most 100 nM, respectively.
Consider `CCn1cc2c(SCC(=O)c3ccc(CNC(=O)CO)s3)nc(C(F)(F)F)nc2n1` [Compound 135, N-((5-(2-((2-ethyl-6-(trifluoromethyl)-2H-pyrazolo[3,4-d]pyrimidin-4-yl)thio)acetyl)thiophen-2-yl)methyl)-2-hydroxyacetamide], for which the IC50 in assay [1] was at most 100 nM; in assay [2] it was above 10000 nM; in assay [3] it was at most 100 nM.
Take `COc1cnc2nc(C)nc(SCC(=O)c3ccc(CNC(=O)CO)s3)c2c1` [Compound 140, 2-hydroxy-N-((5-(2-((6-methoxy-2-methylpyrido[2,3-d]pyrimidin-4-yl)thio)acetyl)thiophen-2-yl)methyl)acetamide]: the IC50 was at most 100 nM in assay [1], above 10000 nM in assay [2] and at most 100 nM in assay [3].
With `Cc1nc(SCC(=O)c2ccc(CNC(=O)CO)s2)c2cc(Cl)cc(F)c2n1` [Compound 142, N-((5-(2-((6-chloro-8-fluoro-2-methylquinazolin-4-yl)thio)acetyl)thiophen-2-yl)methyl)-2-hydroxyacetamide], the IC50 is at most 100 nM in assay [1], above 10000 nM in assay [2] and at most 100 nM in assay [3].
`COc1cc(C(F)(F)F)cc2c(SCC(=O)c3ccc(CNC(=O)CO)s3)nc(C)nc12` [Compound 148, 2-hydroxy-N-((5-(2-((8-methoxy-2-methyl-6-(trifluoromethyl)quinazolin-4-yl)thio)acetyl)thiophen-2-yl)methyl)acetamide]: the IC50 was at most 100 nM in assay [1], above 10000 nM in assay [2] and at most 100 nM in assay [3].
For `O=C(CO)NCc1ccc(C(=O)CSc2nc(C(F)(F)F)nc3cccnc23)s1` [Compound 152, 2-hydroxy-N-((5-(2-((2-(trifluoromethyl)pyrido[3,2-d]pyrimidin-4-yl)thio)acetyl)thiophen-2-yl)methyl)acetamide], the IC50 was at most 100 nM in assay [1], above 10000 nM in assay [2] and at most 100 nM in assay [3].
Turning to `O=C(CSc1nc(C(F)(F)F)nc2nn(C3CC3)cc12)c1ccc(CNC(=O)C2CC2(F)F)s1` (stereo not drawn) [Example 43, N-((5-(2-((2-cyclopropyl-6-(trifluoromethyl)-2H-pyrazolo[3,4-d]pyrimidin-4-yl)thio)acetyl)thiophen-2-yl)methyl)-2,2-difluorocyclopropane-1-carboxamide], the figures for the IC50 in assay [1], in assay [2] and in assay [3] were at most 100 nM, above 10000 nM and 100 to 500 nM, respectively.
Consider `O=C(CSc1nc(C(F)(F)F)nc2nn(C3CC3)cc12)c1ccc(CNC(=O)C(F)(F)C(F)(F)F)s1` [Example 44, N-((5-(2-((2-cyclopropyl-6-(trifluoromethyl)-2H-pyrazolo[3,4-d]pyrimidin-4-yl)thio)acetyl)thiophen-2-yl)methyl)-2,2,3,3,3-pentafluoropropanamide], for which the IC50 is at most 100 nM in assay [1], above 10000 nM in assay [2] and 100 to 500 nM in assay [3].
For `COc1ccc2nc(C)nc(SCC(=O)c3ccc(CNC(=O)CO)s3)c2c1` [Example 60, 2-Hydroxy-N-((5-(2-((6-methoxy-2-methylquinazolin-4-yl)thio)acetyl)thiophen-2-yl)methyl)acetamide], the IC50 in assay [1] was at most 100 nM; in assay [2], above 10000 nM; in assay [3], at most 100 nM.
Take `O=C(CSc1nc(C(F)(F)F)nc2ncccc12)c1ccc(CN2CCOCC2=O)s1` [Example 138, 4-((5-(2-((2-(trifluoromethyl)pyrido[2,3-d]pyrimidin-4-yl)thio)acetyl)thiophen-2-yl)methyl)morpholin-3-one]: the results for the IC50 in assay [1], in assay [2] and in assay [3] were at most 100 nM, above 10000 nM and at most 100 nM, respectively.
